This is an account of results in PubChem BioAssay (NCI).

Some test systems named below: SK-MEL-5 melanoma; MOLT-4 leukemia; NCI-H23 lung; K-562 leukemia; PC-3 prostate; HCT-15 colon; EKVX NSCLC; BT-549 breast; SN12C renal; HT29 colon.
Common to all, as to test: growth of human tumour cells (NCI), 48 h

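Cultured in 96-well plates, cells were exposed to test compound for 48 hours across five concentrations. GI50 = concentration required for 50% inhibition of growth. TGI marks complete inhibition of growth.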 Where only a bound is given, the exact number is not on record here.

For the compound `O=C1Nc2c(Cl)cc(Cl)cc2/C1=N/N=C/c1ccco1`, the TGI with SK-MEL-5 melanoma was above 100 µM; with MOLT-4 leukemia, above 100 µM; in the assay with NCI-H23 lung, 75.9 µM; in the assay with K-562 leukemia it was above 100 µM; in the assay with PC-3 prostate, above 100 µM; in the assay with HCT-15 colon, above 100 µM. Besides, the TGI in the assay with EKVX NSCLC was 84.9 µM; in the assay with BT-549 breast it was 60.6 µM; in the assay with SN12C renal it was 82.1 µM; in the assay on HT29 colon, above 100 µM.

As to `CSc1ccc(C2=NN(C(C)=O)C(c3ccc(-c4cc(Cl)c(Cl)cc4Cl)o3)C2)cc1` (stereo not given), the GI50 with SK-MEL-5 melanoma is 12.6 µM; in the assay on MOLT-4 leukemia, 12.1 µM; with NCI-H23 lung, 15.4 µM; in the assay with K-562 leukemia, 14.8 µM; with PC-3 prostate, 11.2 µM; in the assay with HCT-15 colon it was 14.8 µM. In addition, the GI50 in the assay on EKVX NSCLC is 14.9 µM; in the assay with BT-549 breast, 16.6 µM; in the assay with SN12C renal it was 14.5 µM; with HT29 colon, 12.9 µM. Further, the TGI with SK-MEL-5 melanoma came out at 25.1 µM; in the assay on MOLT-4 leukemia, 35.3 µM; with NCI-H23 lung, 29.6 µM; in the assay on K-562 leukemia it was 34.2 µM; in the assay on PC-3 prostate, 30.7 µM; in the assay on HCT-15 colon, 28 µM. Moreover, the TGI in the assay on EKVX NSCLC is 30.6 µM; in the assay on BT-549 breast it was 30.8 µM; with SN12C renal it was 27.6 µM; in the assay with HT29 colon, 26.7 µM.

Consider `O=S(=O)(N=C1C(Cl)=C(Cl)C(=NS(=O)(=O)c2ccccc2)C(Cl)=C1Cl)c1ccccc1`, for which the GI50 in the assay with SK-MEL-5 melanoma is 13.9 µM; in the assay on MOLT-4 leukemia, 27 µM; with NCI-H23 lung it was 25.6 µM; with K-562 leukemia it was 21.4 µM; in the assay on PC-3 prostate, 24.3 µM; with HCT-15 colon it was 24.5 µM. In addition, the GI50 is 31.5 µM in the assay on EKVX NSCLC, 17.3 µM in the assay with BT-549 breast, 29.9 µM in the assay with SN12C renal and 15.4 µM in the assay with HT29 colon. Also, the TGI with SK-MEL-5 melanoma was 36.5 µM; in the assay on MOLT-4 leukemia, above 100 µM; in the assay with NCI-H23 lung it was above 100 µM; with K-562 leukemia, above 100 µM; with PC-3 prostate, above 100 µM; in the assay with HCT-15 colon, above 100 µM. Further, the TGI in the assay with EKVX NSCLC was above 100 µM; in the assay on BT-549 breast it was 37.5 µM; in the assay with SN12C renal, above 100 µM; with HT29 colon it was 49.2 µM.

`COc1cc(-n2ccnc2-c2ccc3ccccc3c2)cc(OC)c1OC`: the GI50 in the assay with SK-MEL-5 melanoma is below 0.0198 µM; with MOLT-4 leukemia, 0.284 µM; with NCI-H23 lung it was 0.223 µM; in the assay on K-562 leukemia, below 0.0191 µM; in the assay with PC-3 prostate, 0.03 µM; in the assay on HCT-15 colon, 0.0509 µM. The GI50 was 0.481 µM with EKVX NSCLC, 0.246 µM with BT-549 breast, 1.64 µM with SN12C renal and below 0.0222 µM with HT29 colon. In addition, the TGI in the assay on SK-MEL-5 melanoma was 12.3 µM; with MOLT-4 leukemia it was above 50.9 µM; with NCI-H23 lung, 13.4 µM; in the assay with K-562 leukemia, above 100 µM; in the assay on PC-3 prostate, above 85.8 µM; in the assay with HCT-15 colon, above 48.6 µM. Further, the TGI is above 72.4 µM in the assay with EKVX NSCLC, 14.9 µM in the assay on BT-549 breast, above 59 µM with SN12C renal and above 37.6 µM in the assay on HT29 colon.

Regarding `Oc1ccccc1-c1nn(CNc2ccc(Cl)cc2)c(=S)o1`, the GI50 in the assay with SK-MEL-5 melanoma is 2.31 µM; with MOLT-4 leukemia, 20.7 µM; with NCI-H23 lung, 0.511 µM; with K-562 leukemia, 0.263 µM; in the assay with PC-3 prostate it was above 100 µM; in the assay on HCT-15 colon, 20 µM. Besides, the GI50 is above 100 µM in the assay with EKVX NSCLC, 61.1 µM with BT-549 breast, 75.8 µM with SN12C renal and 24.2 µM in the assay on HT29 colon. In addition, the TGI was above 100 µM with SK-MEL-5 melanoma; 74 µM in the assay with MOLT-4 leukemia; 64.5 µM in the assay with NCI-H23 lung; above 100 µM in the assay on K-562 leukemia; above 100 µM with PC-3 prostate; 45.4 µM in the assay on HCT-15 colon. The TGI is above 100 µM in the assay on EKVX NSCLC, above 100 µM with BT-549 breast, above 100 µM with SN12C renal and 88.1 µM in the assay with HT29 colon.

As to `CCCc1nn(C)c2c(=O)[nH]c(-c3cc(S(=O)(=O)N4CCN(C)CC4)ccc3OCC)nc12`, the GI50 with SK-MEL-5 melanoma, in the assay with MOLT-4 leukemia, in the assay with NCI-H23 lung, in the assay with K-562 leukemia, in the assay on PC-3 prostate and in the assay with HCT-15 colon was above 100 µM in each case. The GI50 in the assay with EKVX NSCLC, in the assay on BT-549 breast, in the assay with SN12C renal and in the assay on HT29 colon was above 100 µM throughout. Moreover, the TGI in the assay with SK-MEL-5 melanoma, in the assay on MOLT-4 leukemia, in the assay with NCI-H23 lung, with K-562 leukemia, in the assay with PC-3 prostate and in the assay with HCT-15 colon was above 100 µM each time. The TGI in the assay on EKVX NSCLC, with BT-549 breast, in the assay on SN12C renal and in the assay with HT29 colon was above 100 µM each time.

With `CC(=O)O.CN1[CH-]N(Cc2ccc(C#N)cc2)c2ccccc21.[Ag+]`, the GI50 in the assay with SK-MEL-5 melanoma is 12.7 µM; with MOLT-4 leukemia it was 26.1 µM; with NCI-H23 lung it was 20.8 µM; in the assay with K-562 leukemia it was 18 µM; with PC-3 prostate, 13.5 µM; in the assay on HCT-15 colon, 18 µM. The GI50 in the assay on EKVX NSCLC was above 100 µM; with BT-549 breast, 18.8 µM; in the assay on SN12C renal it was 18.9 µM; with HT29 colon, 21.6 µM. Moreover, the TGI in the assay with SK-MEL-5 melanoma was 27.6 µM; in the assay on MOLT-4 leukemia, 68.2 µM; in the assay with NCI-H23 lung it was 58 µM; with K-562 leukemia it was 46 µM; with PC-3 prostate, 28.5 µM; in the assay on HCT-15 colon, 38 µM. In addition, the TGI with EKVX NSCLC is above 100 µM; in the assay on BT-549 breast, 38.4 µM; in the assay with SN12C renal, 38.4 µM; in the assay on HT29 colon, 44.4 µM.

For the compound `O=C1c2ccccc2C(=O)N1CCc1ncc(-c2ccccc2)[nH]1`, the TGI in the assay on SK-MEL-5 melanoma, in the assay on MOLT-4 leukemia, in the assay on NCI-H23 lung, in the assay with K-562 leukemia, with PC-3 prostate and in the assay with HCT-15 colon was above 100 µM each time. For the same compound, the TGI with EKVX NSCLC, with BT-549 breast, in the assay on SN12C renal and with HT29 colon was above 100 µM each time.
